{"source": "patent US20210002712A1", "about": "“PHOSPHATIDIC ACID SENSOR” (NATIONAL UNIVERSITY CORPORATION CHIBA UNIVERSITY, priority 2019, published 2021)", "key": {"PLD2": {"biological_target": "PLD2 (Homo sapiens, UniProt O14939)", "sequence (O14939 whole entry)": "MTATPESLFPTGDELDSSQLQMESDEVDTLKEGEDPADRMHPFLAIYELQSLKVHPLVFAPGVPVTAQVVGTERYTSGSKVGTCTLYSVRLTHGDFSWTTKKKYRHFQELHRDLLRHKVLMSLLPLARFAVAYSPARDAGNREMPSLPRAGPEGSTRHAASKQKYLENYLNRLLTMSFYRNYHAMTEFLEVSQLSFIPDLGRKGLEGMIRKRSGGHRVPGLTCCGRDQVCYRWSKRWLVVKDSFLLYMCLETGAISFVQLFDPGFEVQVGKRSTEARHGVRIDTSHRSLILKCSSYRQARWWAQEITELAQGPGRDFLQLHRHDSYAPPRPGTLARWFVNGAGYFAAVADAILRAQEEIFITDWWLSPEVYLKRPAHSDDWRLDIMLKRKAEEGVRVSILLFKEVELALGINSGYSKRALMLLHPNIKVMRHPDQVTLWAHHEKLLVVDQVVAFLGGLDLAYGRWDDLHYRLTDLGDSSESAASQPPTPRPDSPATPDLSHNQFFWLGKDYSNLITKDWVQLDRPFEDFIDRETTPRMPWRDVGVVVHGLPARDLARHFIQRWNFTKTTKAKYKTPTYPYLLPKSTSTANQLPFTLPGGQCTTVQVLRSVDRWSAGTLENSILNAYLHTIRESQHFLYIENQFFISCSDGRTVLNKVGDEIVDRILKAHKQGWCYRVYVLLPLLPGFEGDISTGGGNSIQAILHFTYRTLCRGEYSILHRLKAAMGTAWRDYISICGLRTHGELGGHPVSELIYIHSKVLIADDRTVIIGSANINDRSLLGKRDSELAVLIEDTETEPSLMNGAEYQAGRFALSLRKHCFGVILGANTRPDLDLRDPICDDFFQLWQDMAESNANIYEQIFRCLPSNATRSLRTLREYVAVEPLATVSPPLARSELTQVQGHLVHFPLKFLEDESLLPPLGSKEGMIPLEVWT", "details": "COS-7 cells, 750 nM for 4 h", "quoted_text": "EGFP-PLD2 was coexpressed with either the DsRed monomer alone or DsRed monomer α-Syn-N in COS-7 cells as indicated. After 24 h of transfection, the cells were incubated with 750 nM FIPI in growth medium for 4 h and then fixed and imaged. […] The localization of EGFP-PLD2-WT and DsRed monomer α-Syn-N was quantified using ImageJ software. COS-7 cells were grown and transfected as described in the above section. […] The cells were then fixed in 4% paraformaldehyde. The coverslips were mounted using Vectashield. Fluorescence images were acquired using an Olympus FV1000-D (IX81) confocal laser scanning microscope. GFP fluorescence was excited at 488 nm, and DsRed fluorescence was excited at 543 nm. Images were acquired using FV-10 ASW software."}, "EGFP-DGKγ": {"biological_target": "T1, EGFP-DGKγ (Homo sapiens, UniProt P49619)", "T1 construct": "expressed in transfected cells; host or cells: COS-7", "T1 sequence (P49619 whole entry)": "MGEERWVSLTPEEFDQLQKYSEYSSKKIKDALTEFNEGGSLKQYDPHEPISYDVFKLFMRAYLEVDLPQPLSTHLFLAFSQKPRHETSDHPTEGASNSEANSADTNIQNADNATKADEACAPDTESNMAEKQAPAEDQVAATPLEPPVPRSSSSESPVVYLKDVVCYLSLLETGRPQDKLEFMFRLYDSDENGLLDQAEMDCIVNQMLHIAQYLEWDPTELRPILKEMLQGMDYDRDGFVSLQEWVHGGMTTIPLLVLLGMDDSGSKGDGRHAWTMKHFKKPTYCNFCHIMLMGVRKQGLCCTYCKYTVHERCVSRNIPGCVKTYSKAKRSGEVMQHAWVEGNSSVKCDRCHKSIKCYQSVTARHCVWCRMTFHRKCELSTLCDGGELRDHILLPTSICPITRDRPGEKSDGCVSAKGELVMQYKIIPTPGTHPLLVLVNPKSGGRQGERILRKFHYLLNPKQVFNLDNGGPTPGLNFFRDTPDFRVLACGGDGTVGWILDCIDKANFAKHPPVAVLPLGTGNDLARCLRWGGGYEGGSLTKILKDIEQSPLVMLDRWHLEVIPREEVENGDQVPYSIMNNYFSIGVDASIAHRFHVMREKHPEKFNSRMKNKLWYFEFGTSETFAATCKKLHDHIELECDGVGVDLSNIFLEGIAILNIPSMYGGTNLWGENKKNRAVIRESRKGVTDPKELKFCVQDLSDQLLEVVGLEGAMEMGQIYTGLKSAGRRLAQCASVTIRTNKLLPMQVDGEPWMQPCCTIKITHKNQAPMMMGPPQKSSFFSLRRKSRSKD", "assay": "PMA-induced translocation of EGFP-DGKγ in COS-7 cells", "assay_type": "cell-based", "details": "1 μM PMA for 30 min", "protocol": "FIGS. 19 and 20. […] Representative data from three independent experiments are shown. Scale bars, 20 μm. FIG. 20.\nCOS-7 cells were maintained in Dulbecco's modified Eagle's medium supplemented with 10% fetal bovine serum, 100 units/ml penicillin, and 100 μg/ml streptomycin at 37° C. in an atmosphere containing 5% CO2. Cells were transiently transfected using PolyFect reagent as described by the manufacturer.\nThe cells were then fixed in 4% paraformaldehyde. The coverslips were mounted using Vectashield. […] Images were acquired using FV-10 ASW software."}, "[1]": {"assay": "Liposome cosedimentation assay, 18:1/18:1-PA liposomes", "assay_type": "binding", "details": "6×His-SUMO-tagged protein 2.5 μM; PA 150 μM", "protocol": "FIG. 1. A schematic architecture of α-Syn and its deletion mutants. FIG. 2. The purified SUMO-tagged-α-Syn and its deletion mutant protein (2.5 μM) were incubated with 18:1/18:1-PA or 18:1/18:1-PS liposomes (PA or […]: 150 μM) and then separated by ultracentrifugation. SDS-PAGE (15%) was performed and separated proteins were stained with Coomassie Brilliant Blue. The positions of α-Syn and its mutants are indicated with arrow heads. The amounts of protein in the supernatant (S) and precipitant (P) were quantified by densitometry using ImageJ software. Binding activity was calculated as the percentage of the precipitate band intensity compared to the total band intensities. Values are presented as the mean±S.D. of four independent experiments. **P<0.01 versus the 18:1/18:1-PS liposome.\nFIG. 3. The purified SUMO-tagged-α-Syn-N protein (2.5 μM) was incubated with control (PC and Chol alone), 16:0/16:0-PA, 16:0/18:1-PA, 18:1/18:1-PA, or 18:0/18:0-PA liposomes (PA: 150 μM) and then separated by ultracentrifugation. SDS-PAGE (15%) was performed and separated proteins were stained with Coomassie Brilliant Blue. The position of α-Syn-N is indicated with an arrow head.\nFIG. 4. The amounts of protein in the supernatant (S) and precipitant (P) were quantified by densitometry using ImageJ software. Binding activity was calculated as the percentage of the precipitate band intensity compared to the total band intensities. Values are presented as the mean±S.D. of three independent experiments. #P<0.05, ##P<0.01, ###P<0.005 versus the 18:1/18:1-PA-liposome, *P<0.05, ***P<0.005 versus the control liposome.\n(§1) FIG. 5. The purified SUMO-tagged-α-Syn protein (0.1 μM) was incubated with 18:1/18:1-PA liposomes of the indicated concentrations (0-20 μM) and then separated by ultracentrifugation. SDS-PAGE (15%) was performed and separated proteins were detected with silver staining. The position of α-Syn-N is indicated with an arrow head.\nFIG. 6. The amounts of protein in the precipitant were quantified by densitometry using ImageJ software. Binding activity was calculated as the percentage of the precipitate band intensity compared to the total band intensities (Input). Values are presented as the mean±S.D. of four independent experiments. The Kd was determined using GraphPad Prism 8 (Dissociation-One phase exponential decay).\nas §1, with “7.” for “5.”, “18:1/18:1-PA, 18:1/18:1-PS, 18:1/18:1-PI(4,5)P2, 18:1/18:1-PE and d18:1/18:1-C1P” for “18:1/18:1-PA”, “(20” for “of the indicated concentrations (0-20”, “(15%) analysis” for “(15%)”\nFIG. 8. The amounts of protein in the precipitant were quantified by densitometry using ImageJ software. The PA binding activity of α-Syn-N was set to 100%. Values are presented as the mean±S.D. of three independent experiments. ***P<0.005 versus 18:1/18:1-PA liposome.\nThe following lipid mixtures were used: the control liposome: Chol (50 mol %) and 16:0/18:1-PC (50 mol %); and the PA liposome: Chol (50 mol %), 16:0/18:1-PC (35 mol %) and each PA species (15 mol %). The combined dried lipid mixture was resuspended in HEPES buffer. Then, the lipid mixture was vortexed for 1 min. Liposome formation was induced by sonication at 75° C. The purified SUMO-tagged α-Syn and its deletion mutants (2.5 μM) were dissolved in HEPES buffer and incubated with the control or PA-containing liposomes at room temperature for 1 h. Then, the samples were centrifuged at 200,000 g at 4° C. for 1 h. The precipitant was dissolved in HEPES buffer. The supernatant and pellet were analyzed by SDS-PAGE followed by Coomassie Brilliant Blue and silver staining. Quantitative densitometry was performed using ImageJ software. Since the lipid forms a bilayer, half of the actual concentration was considered."}}}
{"molecule": "O=C(NCCN1CCC(n2c(=O)[nH]c3ccccc32)CC1)c1cc2cc(F)ccc2[nH]1", "note": "[FIPI, 5-fluoro-2-indolyl deschlorohalopemide]", "values": [{"measurement": "effect on colocalization of EGFP-PLD2 and DsRed-α-Syn-N", "setting": "PLD2", "result": "markedly attenuated their colocalization"}]}
{"molecule": "CCCCCCCCCCCCCC(=O)O[C@@H]1[C@@H](C)[C@@]2(O)[C@@H](C=C(CO)C[C@]3(O)C(=O)C(C)=C[C@@H]23)[C@@H]2C(C)(C)[C@]12OC(C)=O", "note": "[PMA, phorbol 12-myristate 13-acetate]", "values": [{"measurement": "translocation of EGFP-DGKγ", "setting": "EGFP-DGKγ", "result": "led to the translocation of EGFP-DGKγ from the cytoplasm to the plasma membrane"}]}
{"molecule": "α-Syn-C: C-terminal region deletion mutant of α-Syn (Lys96-Ala140), 6×His-SUMO-tagged", "values": [{"measurement": "PA-binding activity (18:1/18:1-PA liposomes)", "setting": "[1]", "result": "failed to show substantial PA-binding activity"}]}
